{
  "source": "patent US7449495B2",
  "about": "“Retinoid derivatives with antiangiogenic, antitumoral and proapoptotic activities” (Sigma-Tau Industrie Farmaceutiche Riunite S.p.A., priority 2001, dated 2008)",
  "key": {"[1]": {"test_system": "NB4 acute promyelocytic leukaemia cell line", "assay": "Cytotoxicity test (sulphorodamine B), NB4", "type": "cell-based, human", "conditions": "24 h incubation, survival 48 h after removal, read-out: IC50", "description": "To carry out the cytotoxicity tests, two acute promyelocytic leukaemia (APL) cell lines were used. • 1. Cell line NB4, carrying the chromosomal translocation t(15; 17) which generates the fusion protein PML/RARα. This cell line is extremely sensitive to the differentiating action of pharmaceutical doses of ATRA (10^−7-10^−6 M); • 2. Cell line HL60, which responds to ATRA less sensitively with respect to cell line NB4.\nThese cell lines were maintained in RPMI 1640 containing 10% foetal calf serum (FCS) and 1% glutamine.\nThe cytotoxicity tests were carried out using NB4 or HL-60 cells in suspension (10000/well). The cells were seeded in a volume of 250 μl in 96 well plates and incubated for 24 hours at 37° C. The following day, test compound ST 1926 [(2E)-3-[3′-(1-Adamantyl)-4′-hydroxy[1,1′-biphenyl]-4-yl]-2-propenoate/ic acid] was added at increasing concentrations, and the cells were incubated for a further 24 hours at 37° C. in a humidified atmosphere containing 5% CO2. On the 3rd day, the medium was removed by centrifuging the plate at 1600×g for 10 min and the supernatant decanted. 250 μl of PBS were added; then the plates were centrifuged again at 1600×g for 10 minutes and the supernatant decanted. 200 μl/well of RPMI 1640 medium containing 10% FCS were added and the plates were incubated at 37° C. for a further 48 hours. On the 5th day, the plates were again centrifuged at 1600×g for 10 minutes, and the medium was removed by upturning the plates, 200 μl of PBS and 50 μl of cold, 80% TCA were added. The plates were then left to incubate on ice for at least 1 hour. The TCA was removed by upturning; the plates were washed three times by immersion in distilled water and dried first on paper, then with a jet of hot air. To all wells were added 200 μl of 0.4% sulphorodamine B in 1% acetic acid. The plates were incubated at room temperature for a further 30 minutes. […] The optical density was measured using a Multiskan spectrophotometer at 540 nm.\n(§1) Cell survival was determined by incubation with ST1926 for 24 hours, 48 hours after the removal of the compound. […]"}, "Human melanoma MeS 2.21": {"test_system": "Human melanoma MeS 2.21", "assay": "Cytotoxicity test (sulphorodamine B), MeS 2.21", "type": "cell-based", "conditions": "24 h incubation, survival 48 h after removal", "description": "Different cell lines deriving from solid tumors were also used. • 1. Human prostate carcinoma PC3 and DU145. These cell lines were maintained in RPMI 1640 medium containing 10% FCS, 1% sodium pyruvate and 1% glutamine; • 2. Human colon adenocarcinoma LoVo. This cell line was maintained in HAM's F-12 medium, containing 10% FCS and 1% glutamine. • 3. Human ovarian carcinoma such as A2780 and A2780/Dx, sensitive and resistant to drugs, respectively (doxorubicin, taxol, etoposide, vincristine); IGROV-1 and IGROV-1/Pt, sensitive and resistant to platinum-based chemotherapy, respectively, were maintained in RPMI 1640 medium containing 10% FCS, 1% sodium pyruvate and 1% glutamine; • 4. Human melanoma MeWo and MeS 2.21, glioblastoma GBM, no small cell lung carcinomas A431, NCI—H460, osteosarcomas SAOS and U2OS were maintained in RPMI 1640 medium containing 10% FCS, 1% sodium pyruvate and 1% glutamine.\nThe cytotoxicity tests were carried out using NB4 or HL-60 cells in suspension (10000/well). The cells were seeded in a volume of 250 μl in 96 well plates and incubated for 24 hours at 37° C. […] The optical density was measured using a Multiskan spectrophotometer at 540 nm. […]\nas §1"}},
  "note": "Where two headings read alike, the source gives them in different places.",
  "data": [
    {"smiles": "O=C(O)/C=C/c1ccc(-c2ccc(O)c(C34CC5CC(CC(C5)C3)C4)c2)cc1", "note": "[ST1926, E-4-(3-(1-adamantyl)-4-hydroxyphenyl)cinnamic acid]", "values": [
      {"measurement": "IC50", "setting": "[1]", "value": 20, "unit": "nM"},
      {"measurement": "IC50", "setting": "[1]; Homo sapiens", "value": 22, "unit": "nM"},
      {"measurement": "IC50", "setting": "Human melanoma MeS 2.21", "value": 230, "unit": "nM"}
    ]}
  ]
}
